Numbers after ± are expanded uncertainties.
How the values were obtained:
[1] = refractive index (Na D-line) (dimensionless); wn = mass fraction of the nth substance listed; settings: 101 kPa, Liquid, Standard Abbe refractometry
[2] = wn = mass fraction of the nth substance listed; settings: Pendant drop shape
[3] = refractive index (Na D-line) (dimensionless); settings: 101.33 kPa, Liquid, Standard Abbe refractometry
[4] = Pendant drop shape

Compound | refractive index ([3]; 283.15 K) | refractive index ([3]; 288.15 K) | refractive index ([3]; 293.15 K) | refractive index ([3]; 298.15 K) | refractive index ([3]; 303.15 K) | refractive index ([3]; 308.15 K) | refractive index ([3]; 313.15 K) | refractive index ([3]; 318.15 K) | refractive index ([3]; 323.15 K) | refractive index ([3]; 328.15 K) | refractive index ([3]; 333.15 K) | refractive index ([3]; 338.15 K) | refractive index ([3]; 343.15 K) | refractive index ([3]; 348.15 K) | refractive index ([3]; 353.15 K) | surface tension liquid-gas ([4]; 307.9 K) [mN/m] | surface tension liquid-gas ([4]; 318 K) [mN/m] | also measured
CCCCCCCCCCCCCC[P+](CCCCCC)(CCCCCC)CCCCCC.[Br-] [tetradecyltrihexylphosphonium bromide] + O |  |  |  |  |  |  |  |  |  |  |  |  |  |  |  |  |  | refractive index ([1]; 298.15 K, w2 = 0.065): 1.4782 ± 0.00037; refractive index ([1]; 303.15 K, w2 = 0.065): 1.47646 ± 0.00037; refractive index ([1]; 308.15 K, w2 = 0.065): 1.47465 ± 0.00037; refractive index ([1]; 313.15 K, w2 = 0.065): 1.47289 ± 0.00037; refractive index ([1]; 318.15 K, w2 = 0.065): 1.47115 ± 0.00037; refractive index ([1]; 323.15 K, w2 = 0.065): 1.46939 ± 0.00037; refractive index ([1]; 328.15 K, w2 = 0.065): 1.46765 ± 0.00037; refractive index ([1]; 333.15 K, w2 = 0.065): 1.46587 ± 0.00037; refractive index ([1]; 338.15 K, w2 = 0.065): 1.46414 ± 0.00037; refractive index ([1]; 343.15 K, w2 = 0.065): 1.46244 ± 0.00037; refractive index ([1]; 348.15 K, w2 = 0.065): 1.46078 ± 0.00037; refractive index ([1]; 353.15 K, w2 = 0.065): 1.45926 ± 0.00037; surface tension liquid-gas ([2]; 298.1 K, w2 = 0.0665): 31.4 ± 0.4 mN/m; surface tension liquid-gas ([2]; 307.9 K, w2 = 0.0665): 30.35 ± 0.35 mN/m; surface tension liquid-gas ([2]; 318.1 K, w2 = 0.0665): 29.64 ± 0.34 mN/m; surface tension liquid-gas ([2]; 328.1 K, w2 = 0.0665): 28.95 ± 0.33 mN/m; surface tension liquid-gas ([2]; 338.9 K, w2 = 0.0665): 28.2 ± 0.33 mN/m; surface tension liquid-gas ([2]; 344.2 K, w2 = 0.0665): 27.91 ± 0.33 mN/m
CC(CC(C)(C)C)CP(=O)([O-])CC(C)CC(C)(C)C.CCCCCCCCCCCCCC[P+](CCCCCC)(CCCCCC)CCCCCC | 1.47702 ± 0.00037 | 1.47538 ± 0.00037 | 1.47374 ± 0.00037 | 1.47209 ± 0.00037 | 1.47044 ± 0.00037 | 1.46879 ± 0.00037 | 1.46712 ± 0.00037 | 1.46546 ± 0.00037 | 1.46383 ± 0.00037 | 1.46216 ± 0.00037 | 1.46056 ± 0.00037 | 1.45893 ± 0.00037 | 1.45716 ± 0.00037 | 1.45553 ± 0.00037 | 1.45387 ± 0.00037 | 27.6 ± 0.3 |  | surface tension liquid-gas ([4]; 297.9 K): 28.2 ± 0.4 mN/m; surface tension liquid-gas ([4]; 317.7 K): 26.9 ± 0.3 mN/m; surface tension liquid-gas ([4]; 328.1 K): 26.2 ± 0.4 mN/m; surface tension liquid-gas ([4]; 338 K): 25.5 ± 0.4 mN/m; surface tension liquid-gas ([4]; 342.9 K): 25 ± 0.3 mN/m
CCCCCCCCCCCCCC[P+](CCCCCC)(CCCCCC)CCCCCC.[Br-] [tetradecyltrihexylphosphonium bromide] | 1.49456 ± 0.00037 | 1.49295 ± 0.00037 | 1.49139 ± 0.00037 | 1.48977 ± 0.00037 | 1.48814 ± 0.00037 | 1.48654 ± 0.00037 | 1.4849 ± 0.00037 | 1.4833 ± 0.00037 | 1.48167 ± 0.00037 | 1.47999 ± 0.00037 | 1.47834 ± 0.00037 | 1.47677 ± 0.00037 | 1.47511 ± 0.00037 | 1.47346 ± 0.00037 | 1.47189 ± 0.00037 |  | 29.6 ± 0.3 | surface tension liquid-gas ([4]; 298.2 K): 30.9 ± 0.4 mN/m; surface tension liquid-gas ([4]; 308.5 K): 30.2 ± 0.4 mN/m; surface tension liquid-gas ([4]; 328.8 K): 28.7 ± 0.4 mN/m; surface tension liquid-gas ([4]; 338.6 K): 28.1 ± 0.3 mN/m; surface tension liquid-gas ([4]; 343.4 K): 27.9 ± 0.4 mN/m
CCCCCCCCCCCCCC[P+](CCCCCC)(CCCCCC)CCCCCC.O=S(=O)([N-]S(=O)(=O)C(F)(F)F)C(F)(F)F | 1.45436 ± 0.00037 | 1.45279 ± 0.00037 | 1.4512 ± 0.00037 | 1.4496 ± 0.00037 | 1.44797 ± 0.00037 | 1.44637 ± 0.00037 | 1.44476 ± 0.00037 | 1.44317 ± 0.00037 | 1.44158 ± 0.00037 | 1.43948 ± 0.00037 | 1.43836 ± 0.00037 | 1.43681 ± 0.00037 | 1.43524 ± 0.00037 | 1.4337 ± 0.00037 | 1.43213 ± 0.00037 | 29.5 ± 0.3 |  | surface tension liquid-gas ([4]; 298.2 K): 30.1 ± 0.3 mN/m; surface tension liquid-gas ([4]; 317.9 K): 28.7 ± 0.4 mN/m; surface tension liquid-gas ([4]; 327.9 K): 28.1 ± 0.3 mN/m; surface tension liquid-gas ([4]; 337.8 K): 27.5 ± 0.4 mN/m; surface tension liquid-gas ([4]; 343.2 K): 27.3 ± 0.4 mN/m
CCCCCCCCCC(=O)[O-].CCCCCCCCCCCCCC[P+](CCCCCC)(CCCCCC)CCCCCC [trihexyltetradecylphosphonium decanoate] | 1.47754 ± 0.00037 | 1.47586 ± 0.00037 | 1.47413 ± 0.00037 | 1.47242 ± 0.00037 | 1.47069 ± 0.00037 | 1.46896 ± 0.00037 | 1.46722 ± 0.00037 | 1.46548 ± 0.00037 | 1.46341 ± 0.00037 | 1.46165 ± 0.00037 | 1.46002 ± 0.00037 | 1.45828 ± 0.00037 | 1.4566 ± 0.00037 | 1.45497 ± 0.00037 | 1.45327 ± 0.00037 | 28.5 ± 0.4 | 27.8 ± 0.4 | surface tension liquid-gas ([4]; 298 K): 29 ± 0.4 mN/m; surface tension liquid-gas ([4]; 328.5 K): 27.2 ± 0.4 mN/m; surface tension liquid-gas ([4]; 338 K): 26.6 ± 0.4 mN/m; surface tension liquid-gas ([4]; 343 K): 26.2 ± 0.4 mN/m
CCCCCCCCCCCCCC[P+](CCCCCC)(CCCCCC)CCCCCC.CS(=O)(=O)[O-] [trihexyltetradecylphosphonium methanesulfonate] + O |  |  |  |  |  |  |  |  |  |  |  |  |  |  |  |  |  | refractive index ([1]; 298.15 K, w2 = 0.1181): 1.45621 ± 0.00037; refractive index ([1]; 303.15 K, w2 = 0.1181): 1.4546 ± 0.00037; refractive index ([1]; 308.15 K, w2 = 0.1181): 1.45281 ± 0.00037; refractive index ([1]; 313.15 K, w2 = 0.1181): 1.45111 ± 0.00037; refractive index ([1]; 318.15 K, w2 = 0.1181): 1.44947 ± 0.00037; refractive index ([1]; 323.15 K, w2 = 0.1181): 1.44795 ± 0.00037; refractive index ([1]; 328.15 K, w2 = 0.1181): 1.44655 ± 0.00037; refractive index ([1]; 333.15 K, w2 = 0.1181): 1.44532 ± 0.00037; refractive index ([1]; 338.15 K, w2 = 0.1181): 1.44427 ± 0.00037; refractive index ([1]; 343.15 K, w2 = 0.1181): 1.44334 ± 0.00037; refractive index ([1]; 348.15 K, w2 = 0.1181): 1.44253 ± 0.00037; refractive index ([1]; 353.15 K, w2 = 0.1181): 1.44181 ± 0.00037; surface tension liquid-gas ([2]; 298.6 K, w2 = 0.1181): 31.15 ± 0.36 mN/m; surface tension liquid-gas ([2]; 307.8 K, w2 = 0.1181): 30.45 ± 0.35 mN/m; surface tension liquid-gas ([2]; 318 K, w2 = 0.1181): 29.81 ± 0.34 mN/m; surface tension liquid-gas ([2]; 323.8 K, w2 = 0.1181): 29.09 ± 0.34 mN/m; surface tension liquid-gas ([2]; 338.2 K, w2 = 0.1181): 28.29 ± 0.33 mN/m; surface tension liquid-gas ([2]; 342.7 K, w2 = 0.1181): 28.05 ± 0.33 mN/m
CCCCCCCCCCCCCC[P+](CCCCCC)(CCCCCC)CCCCCC.[Cl-] [trihexyl(tetradecyl)phosphonium chloride] | 1.48794 ± 0.00037 | 1.48635 ± 0.00037 | 1.48471 ± 0.00037 | 1.48309 ± 0.00037 | 1.48142 ± 0.00037 | 1.47973 ± 0.00037 | 1.47796 ± 0.00037 | 1.4757 ± 0.00037 | 1.47387 ± 0.00037 | 1.4721 ± 0.00037 | 1.47029 ± 0.00037 | 1.46854 ± 0.00037 | 1.46677 ± 0.00037 | 1.46504 ± 0.00037 | 1.4634 ± 0.00037 |  | 29.3 ± 0.3 | surface tension liquid-gas ([4]; 298.6 K): 30.6 ± 0.4 mN/m; surface tension liquid-gas ([4]; 308 K): 30.1 ± 0.3 mN/m; surface tension liquid-gas ([4]; 328.1 K): 28.6 ± 0.3 mN/m; surface tension liquid-gas ([4]; 338.3 K): 27.8 ± 0.3 mN/m; surface tension liquid-gas ([4]; 343.3 K): 27.5 ± 0.4 mN/m

From the NIST ThermoML archive (doi:10.1016/j.jct.2012.09.004)
